Reference: the supplement of paper PMC10307832

Key:
Assay in all cases: relative viability (nuclei count vs DMSO), 5 days (fraction); higher = more cells survive
[1] = compound: COc1cc2nc(N3CCCN(C)CC3)nc(NC3CCN(Cc4ccccc4)CC3)c2cc1OC + Cc1nc(Nc2ncc(C(=O)Nc3c(C)cccc3Cl)s2)cc(N2CCN(CCO)CC2)n1 [Dasatinib] (partner 0.075 µM)
Procedure, shortened: (§1)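 After 5 days of treatment, lung cancer cells in 1536-well plates were fixed and stained in a single step (final 0.05% Triton X-100, 1% formaldehyde, 1 ug/ml Hoechst) and their nuclei counted on 4× images. Treatment had been applied by pin tool the day after seeding as one drug alone or as a fixed anchor-drug dose with five library-drug doses (not always all listed) in √10 steps. Relative viability is the nuclei count of treated wells divided by that of vehicle wells, and values are medians of duplicate plates.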

[2] = compound: Cc1cc([C@@H](C)Nc2ccccc2C(=O)O)c2nc(N3CCOCC3)cc(=O)n2c1 [AZD6482] + COc1cccc2cc(-c3nc([C@H]4CC[C@H](C(=O)O)CC4)n4ncnc(N)c34)[nH]c12 [OSI-027] (partner 0.5 µM)
Procedure, shortened: as §1

[3] = compound: Cc1cc([C@@H](C)Nc2ccccc2C(=O)O)c2nc(N3CCOCC3)cc(=O)n2c1 [AZD6482] + Cc1nc(NC(=O)N2CCC[C@H]2C(N)=O)sc1-c1ccnc(C(C)(C)C(F)(F)F)c1 [Alpelisib] (partner 2 µM)
Procedure, shortened: as §1

[4] = compound: Cc1cc([C@@H](C)Nc2ccccc2C(=O)O)c2nc(N3CCOCC3)cc(=O)n2c1 [AZD6482] + O=C(CCCCCCC(=O)Nc1ccccc1)NO [Vorinostat] (partner 1 µM)
Procedure, shortened: as §1

Cell Line | relative viability ([1]; first compound 0.2 µM) | relative viability ([1]; first compound 0.6325 µM) | relative viability ([1]; first compound 2 µM) | relative viability ([1]; first compound 6.325 µM) | relative viability ([2]; first compound 0.08 µM) | relative viability ([2]; first compound 0.253 µM) | relative viability ([2]; first compound 0.8 µM) | relative viability ([2]; first compound 8 µM) | relative viability ([3]; first compound 0.08 µM) | relative viability ([3]; first compound 0.253 µM) | relative viability ([3]; first compound 0.8 µM) | relative viability ([3]; first compound 2.53 µM) | relative viability ([3]; first compound 8 µM) | relative viability ([4]; first compound 0.08 µM) | relative viability ([4]; first compound 0.253 µM) | relative viability ([4]; first compound 0.8 µM) | relative viability ([4]; first compound 2.53 µM) | relative viability ([4]; first compound 8 µM) | relative viability ([2]; first compound 2.53 µM)
NCI-H3122 | 0.969 | 0.763 | 0.894 | 0.765 | 1.01 | 1.01 | 0.89 | 0.465 | 0.696 | 0.717 | 0.754 | 0.394 | 0.677 | 1.01 | 1.1 | 0.829 | 0.84 | 0.796 | –
HCC-827 | 0.398 | 0.237 | 0.258 | 0.379 | 0.709 | 0.658 | 0.8 | 0.48 | 0.613 | 0.506 | 0.456 | 0.33 | 0.351 | 0.801 | 0.795 | 0.912 | 0.649 | 0.686 | 0.451
SK-LU-1 | 0.21 | 0.159 | 0.206 | 0.119 | – | 0.319 | 0.347 | 0.214 | – | 0.89 | 0.892 | 0.76 | 0.76 | – | 0.767 | 0.812 | 0.591 | 0.517 | 0.246
NCI-H1975 | 0.342 | 0.438 | 0.464 | 0.287 | 0.631 | 0.616 | 0.779 | 0.427 | 0.475 | 0.439 | 0.521 | 0.373 | 0.362 | 0.638 | 0.655 | 0.743 | 0.535 | 0.482 | 0.495
NCI-H1651 | 0.383 | 0.523 | 0.47 | 0.413 | 0.601 | 0.59 | 0.655 | 0.539 | 0.791 | 0.778 | 0.712 | 0.42 | 0.777 | 0.602 | 0.502 | 0.56 | 0.464 | 0.524 | 0.567
NCI-H441 | 0.602 | 0.616 | 0.532 | 0.599 | 0.669 | 0.4 | 0.627 | 0.508 | 0.65 | 0.834 | 0.592 | 0.532 | 0.66 | 0.854 | 0.788 | 0.741 | – | 0.782 | –
LCLC-103H | 0.394 | 0.344 | 0.532 | 0.479 | 0.414 | 0.452 | 0.492 | 0.31 | 0.877 | 0.747 | 0.701 | 0.605 | 0.553 | 0.661 | 0.748 | 0.784 | 0.565 | 0.51 | 0.273
LCLC-97TM1 | 0.857 | 0.701 | 0.877 | 0.915 | 0.482 | 0.399 | 0.384 | 0.312 | 0.274 | 0.19 | 0.238 | 0.187 | 0.204 | 0.616 | 0.703 | 0.565 | – | 0.583 | 0.255
NCI-H727 | 0.302 | 0.461 | 0.452 | 0.322 | 0.457 | 0.521 | 0.511 | 0.518 | 0.398 | 0.535 | 0.46 | – | 0.493 | 1.1 | 1.11 | 1.17 | – | 0.96 | 0.43
NCI-H1355 | 0.761 | 0.777 | 0.787 | 0.783 | 0.287 | 0.323 | 0.384 | 0.298 | 0.523 | 0.621 | 0.6 | 0.452 | 0.592 | 0.446 | 0.541 | 0.674 | 0.447 | 0.407 | 0.256
HOP-62 | 0.748 | 0.62 | 0.711 | 0.65 | 0.817 | 0.883 | 0.774 | 0.765 | 1 | 0.959 | 1.19 | 0.531 | 0.903 | 0.613 | 0.583 | 0.615 | 0.408 | 0.473 | 0.553
NCI-H2085 | 0.217 | 0.306 | 0.262 | 0.206 | 0.523 | 0.478 | 0.473 | 0.331 | 0.426 | 0.409 | 0.351 | 0.34 | 0.409 | 0.557 | 0.402 | 0.517 | 0.398 | 0.341 | 0.28
